Assay results published in the kinase profiling compilation of Christmann-Franck et al. (2016).
Where “and” joins values, the source holds several entries; their conditions need not be identical. Equal entries are not always repeated.

Assays:
Test in all cases: radiometric filter-binding kinase assay, Kinase HotSpot
Conditions in all cases: compound 0.5 µM; ATP 10 µM
PRKCE (human) = PRKCE (human) (UniProt Q02156)
MAPKAPK2 (human) = MAPKAPK2 (human) (UniProt P49137)
DYRK4 (human) = DYRK4 (human) (UniProt Q9NR20)
STK10 (human) = STK10 (human) (UniProt O94804)
LCK (human) = LCK (human) (UniProt P06239)
Chain of LCK (human) (P06239 whole entry, looked up): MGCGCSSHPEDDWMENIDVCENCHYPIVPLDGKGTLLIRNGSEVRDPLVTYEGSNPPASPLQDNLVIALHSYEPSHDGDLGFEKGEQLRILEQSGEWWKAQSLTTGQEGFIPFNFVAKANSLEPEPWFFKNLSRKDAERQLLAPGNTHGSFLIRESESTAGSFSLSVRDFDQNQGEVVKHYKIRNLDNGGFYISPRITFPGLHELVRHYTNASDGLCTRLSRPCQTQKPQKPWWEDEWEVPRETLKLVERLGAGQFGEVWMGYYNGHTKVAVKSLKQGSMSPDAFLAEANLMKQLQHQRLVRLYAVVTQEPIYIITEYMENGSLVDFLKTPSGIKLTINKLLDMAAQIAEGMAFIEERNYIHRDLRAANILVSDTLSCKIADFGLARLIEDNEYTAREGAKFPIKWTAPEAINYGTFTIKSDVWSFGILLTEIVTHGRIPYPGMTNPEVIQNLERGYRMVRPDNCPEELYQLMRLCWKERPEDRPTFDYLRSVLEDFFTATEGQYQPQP

STK39 (human) = STK39 (human) (UniProt Q9UEW8)
PRKCB1 (human) = PRKCB1 (human) (UniProt P05771)
MAP3K11 (human) = MAP3K11 (human) (UniProt Q16584)
LYN (human) = LYN (human) (UniProt P07948)
JAK2 JH1 JH2 (human) = JAK2 JH1 JH2 (human) (UniProt O60674)
CDK1 CCNB1 (human) = CDK1 CCNB1 (human) (UniProt P06493+P14635)
EPHA4 (human) = EPHA4 (human) (UniProt P54764)
PHKG2 (human) = PHKG2 (human) (UniProt P15735)
LRRK2 (human) = LRRK2 (human) (UniProt Q5S007)
PKN1 (human) = PKN1 (human) (UniProt Q16512)
Chain of PKN1 (human) (Q16512 whole entry, looked up): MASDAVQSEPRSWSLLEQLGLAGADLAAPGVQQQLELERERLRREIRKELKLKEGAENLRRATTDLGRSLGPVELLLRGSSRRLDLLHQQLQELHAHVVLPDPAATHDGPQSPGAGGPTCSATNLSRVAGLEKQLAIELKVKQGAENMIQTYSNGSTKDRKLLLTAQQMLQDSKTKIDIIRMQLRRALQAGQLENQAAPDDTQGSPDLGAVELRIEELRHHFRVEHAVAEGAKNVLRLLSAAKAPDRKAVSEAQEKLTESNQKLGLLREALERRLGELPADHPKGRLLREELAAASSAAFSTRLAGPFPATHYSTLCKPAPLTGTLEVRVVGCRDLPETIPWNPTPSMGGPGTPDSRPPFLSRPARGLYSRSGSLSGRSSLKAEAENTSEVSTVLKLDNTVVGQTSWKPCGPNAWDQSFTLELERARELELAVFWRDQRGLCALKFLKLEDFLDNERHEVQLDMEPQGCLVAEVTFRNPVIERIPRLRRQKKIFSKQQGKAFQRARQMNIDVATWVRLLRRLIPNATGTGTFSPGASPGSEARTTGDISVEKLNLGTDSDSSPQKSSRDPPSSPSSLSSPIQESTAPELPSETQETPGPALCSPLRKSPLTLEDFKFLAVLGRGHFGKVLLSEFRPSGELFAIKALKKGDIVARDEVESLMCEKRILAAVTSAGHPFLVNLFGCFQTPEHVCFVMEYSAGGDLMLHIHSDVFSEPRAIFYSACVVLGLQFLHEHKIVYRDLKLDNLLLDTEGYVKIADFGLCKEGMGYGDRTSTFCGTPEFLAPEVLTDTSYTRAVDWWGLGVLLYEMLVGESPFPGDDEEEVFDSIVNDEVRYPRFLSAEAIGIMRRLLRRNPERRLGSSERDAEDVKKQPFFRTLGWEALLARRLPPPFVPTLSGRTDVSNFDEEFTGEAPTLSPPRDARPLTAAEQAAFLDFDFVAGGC

TXK (human) = TXK (human) (UniProt P42681)
CDK2 CCNE1 (human) = CDK2 CCNE1 (human) (UniProt P24941+P24864)
MAP3K10 (human) = MAP3K10 (human) (UniProt Q02779)
MAP4K5 (human) = MAP4K5 (human) (UniProt Q9Y4K4)
TGFBR1 (human) = TGFBR1 (human) (UniProt P36897)
Chain of TGFBR1 (human) (P36897 whole entry, looked up): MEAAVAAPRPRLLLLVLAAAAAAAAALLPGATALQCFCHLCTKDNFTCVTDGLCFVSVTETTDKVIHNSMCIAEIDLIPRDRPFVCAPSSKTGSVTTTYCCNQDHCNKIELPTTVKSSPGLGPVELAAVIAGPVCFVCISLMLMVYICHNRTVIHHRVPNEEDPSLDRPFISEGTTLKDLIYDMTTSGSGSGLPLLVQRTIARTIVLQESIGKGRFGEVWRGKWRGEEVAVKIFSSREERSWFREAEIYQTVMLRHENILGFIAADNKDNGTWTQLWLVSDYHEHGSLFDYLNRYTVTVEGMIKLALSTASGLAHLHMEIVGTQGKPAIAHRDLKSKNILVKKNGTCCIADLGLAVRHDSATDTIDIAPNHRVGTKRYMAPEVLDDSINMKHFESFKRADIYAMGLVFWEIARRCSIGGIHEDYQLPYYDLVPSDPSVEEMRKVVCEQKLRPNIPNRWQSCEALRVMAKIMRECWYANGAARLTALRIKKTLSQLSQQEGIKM

DSTYK (human) = DSTYK (human) (UniProt Q6XUX3)
Chain of DSTYK (human) (Q6XUX3 whole entry, looked up): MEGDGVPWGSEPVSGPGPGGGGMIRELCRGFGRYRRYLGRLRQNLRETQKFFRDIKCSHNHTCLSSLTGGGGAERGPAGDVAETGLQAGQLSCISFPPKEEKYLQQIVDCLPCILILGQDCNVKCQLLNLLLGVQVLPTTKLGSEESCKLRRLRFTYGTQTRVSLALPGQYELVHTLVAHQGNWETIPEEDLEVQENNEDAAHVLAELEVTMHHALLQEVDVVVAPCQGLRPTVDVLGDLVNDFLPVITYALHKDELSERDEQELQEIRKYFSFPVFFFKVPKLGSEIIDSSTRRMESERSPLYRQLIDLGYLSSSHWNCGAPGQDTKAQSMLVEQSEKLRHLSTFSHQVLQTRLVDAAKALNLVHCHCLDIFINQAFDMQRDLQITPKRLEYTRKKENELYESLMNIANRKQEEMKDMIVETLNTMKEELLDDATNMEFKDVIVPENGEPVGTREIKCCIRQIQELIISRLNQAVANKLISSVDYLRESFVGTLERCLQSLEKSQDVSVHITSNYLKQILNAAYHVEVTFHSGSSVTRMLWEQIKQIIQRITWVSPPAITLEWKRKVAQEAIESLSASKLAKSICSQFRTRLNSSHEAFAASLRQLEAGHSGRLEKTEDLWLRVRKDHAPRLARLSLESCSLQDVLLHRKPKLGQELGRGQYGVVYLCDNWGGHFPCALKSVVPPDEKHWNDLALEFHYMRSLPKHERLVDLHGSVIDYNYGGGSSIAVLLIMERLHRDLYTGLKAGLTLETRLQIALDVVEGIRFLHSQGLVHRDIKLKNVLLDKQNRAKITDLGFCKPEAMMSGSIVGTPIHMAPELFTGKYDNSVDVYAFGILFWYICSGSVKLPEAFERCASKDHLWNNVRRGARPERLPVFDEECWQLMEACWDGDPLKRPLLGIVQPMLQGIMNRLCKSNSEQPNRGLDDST

GSG2 (human) = GSG2 (human) (UniProt Q8TF76)
CDK9 CCNT1 (human) = CDK9 CCNT1 (human) (UniProt P50750+O60563)
PAK2 (human) = PAK2 (human) (UniProt Q13177)
AKT2 (human) = AKT2 (human) (UniProt P31751)
RAF1 (human) = RAF1 (human) (UniProt P04049)
Chain of RAF1 (human) (P04049 whole entry, looked up): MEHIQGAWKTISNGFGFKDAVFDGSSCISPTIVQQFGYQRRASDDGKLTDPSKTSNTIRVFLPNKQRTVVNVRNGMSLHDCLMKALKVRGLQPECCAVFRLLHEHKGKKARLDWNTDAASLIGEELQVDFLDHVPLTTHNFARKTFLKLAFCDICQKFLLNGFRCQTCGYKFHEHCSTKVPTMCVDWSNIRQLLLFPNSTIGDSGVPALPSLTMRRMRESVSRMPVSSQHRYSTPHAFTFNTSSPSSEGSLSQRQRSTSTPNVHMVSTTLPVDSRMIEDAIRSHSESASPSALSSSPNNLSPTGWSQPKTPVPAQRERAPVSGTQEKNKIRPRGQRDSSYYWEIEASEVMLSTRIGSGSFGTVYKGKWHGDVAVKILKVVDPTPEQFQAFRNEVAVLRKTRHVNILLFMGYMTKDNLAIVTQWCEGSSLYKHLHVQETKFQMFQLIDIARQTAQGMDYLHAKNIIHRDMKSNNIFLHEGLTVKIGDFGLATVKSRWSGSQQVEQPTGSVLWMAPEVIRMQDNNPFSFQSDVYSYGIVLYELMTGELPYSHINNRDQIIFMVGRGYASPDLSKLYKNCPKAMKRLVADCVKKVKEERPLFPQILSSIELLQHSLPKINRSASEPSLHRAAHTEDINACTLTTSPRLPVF

IGF1R (human) = IGF1R (human) (UniProt P08069)
FYN (human) = FYN (human) (UniProt P06241)
Chain of FYN (human) (P06241 whole entry, looked up): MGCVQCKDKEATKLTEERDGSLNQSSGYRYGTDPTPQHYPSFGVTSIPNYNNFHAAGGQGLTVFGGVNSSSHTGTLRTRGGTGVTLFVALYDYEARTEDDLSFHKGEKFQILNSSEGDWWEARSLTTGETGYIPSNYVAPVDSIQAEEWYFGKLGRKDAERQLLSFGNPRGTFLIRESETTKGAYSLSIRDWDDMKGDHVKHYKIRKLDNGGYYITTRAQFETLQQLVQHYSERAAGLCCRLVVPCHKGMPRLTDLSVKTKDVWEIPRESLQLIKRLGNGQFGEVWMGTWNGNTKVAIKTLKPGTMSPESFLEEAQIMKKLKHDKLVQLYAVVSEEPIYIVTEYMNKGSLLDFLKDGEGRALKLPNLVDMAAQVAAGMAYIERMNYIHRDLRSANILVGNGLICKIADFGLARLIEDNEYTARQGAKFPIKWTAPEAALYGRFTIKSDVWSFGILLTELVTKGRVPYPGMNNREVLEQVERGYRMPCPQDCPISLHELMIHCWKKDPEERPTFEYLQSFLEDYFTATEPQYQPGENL

PDPK1 (human) = PDPK1 (human) (UniProt O15530)
TAOK1 (human) = TAOK1 (human) (UniProt Q7L7X3)
Chain of TAOK1 (human) (Q7L7X3 whole entry, looked up): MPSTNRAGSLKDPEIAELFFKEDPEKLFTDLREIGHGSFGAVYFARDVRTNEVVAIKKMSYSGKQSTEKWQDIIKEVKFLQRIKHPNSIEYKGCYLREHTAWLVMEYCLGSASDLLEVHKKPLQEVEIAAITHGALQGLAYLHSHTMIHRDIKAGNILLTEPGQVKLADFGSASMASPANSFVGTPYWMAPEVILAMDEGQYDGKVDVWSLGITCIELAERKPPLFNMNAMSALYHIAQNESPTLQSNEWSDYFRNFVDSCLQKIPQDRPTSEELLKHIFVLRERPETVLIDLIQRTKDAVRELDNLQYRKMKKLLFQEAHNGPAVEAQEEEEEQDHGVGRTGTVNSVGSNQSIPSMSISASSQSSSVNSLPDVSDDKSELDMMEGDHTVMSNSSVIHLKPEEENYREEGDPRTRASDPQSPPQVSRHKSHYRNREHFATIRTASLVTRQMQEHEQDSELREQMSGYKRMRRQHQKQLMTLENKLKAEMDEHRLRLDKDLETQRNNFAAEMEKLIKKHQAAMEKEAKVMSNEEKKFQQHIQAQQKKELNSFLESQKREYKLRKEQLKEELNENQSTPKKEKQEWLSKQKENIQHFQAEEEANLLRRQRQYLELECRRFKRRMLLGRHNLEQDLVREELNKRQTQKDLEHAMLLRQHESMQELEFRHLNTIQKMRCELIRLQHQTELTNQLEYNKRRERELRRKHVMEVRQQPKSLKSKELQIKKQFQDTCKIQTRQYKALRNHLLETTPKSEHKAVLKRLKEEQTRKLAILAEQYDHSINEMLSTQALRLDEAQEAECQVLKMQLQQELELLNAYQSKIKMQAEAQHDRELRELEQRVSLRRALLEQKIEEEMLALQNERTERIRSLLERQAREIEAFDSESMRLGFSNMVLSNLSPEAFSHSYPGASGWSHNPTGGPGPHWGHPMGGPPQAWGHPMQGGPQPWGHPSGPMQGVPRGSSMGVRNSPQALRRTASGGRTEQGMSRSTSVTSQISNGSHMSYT

STK3 (human) = STK3 (human) (UniProt Q13188)
ZAP70 (human) = ZAP70 (human) (UniProt P43403)
PBK (human) = PBK (human) (UniProt Q96KB5)
RPS6KA3 KD1 KD2 (human) = RPS6KA3 KD1 KD2 (human) (UniProt P51812)
LIMK1 (human) = LIMK1 (human) (UniProt P53667)
CSK (human) = CSK (human) (UniProt P41240)
WNK3 (human) = WNK3 (human) (UniProt Q9BYP7)
RPS6KA6 KD1 KD2 (human) = RPS6KA6 KD1 KD2 (human) (UniProt Q9UK32)
ROCK2 (human) = ROCK2 (human) (UniProt O75116)
STK11 (human) = STK11 (human) (UniProt Q15831)
EPHA2 (human) = EPHA2 (human) (UniProt P29317)
ABL1 (human) = ABL1 (human) (UniProt P00519)

## COc1cc(Nc2c(C#N)cnc3cc(OCCCN4CCN(C)CC4)c(OC)cc23)c(Cl)cc1Cl
PRKCE (human)
  residual activity: 78%
MAPKAPK2 (human)
  residual activity: 94.7%
DYRK4 (human)
  residual activity: 97.9%
STK10 (human)
  residual activity: 12.6%
LCK (human)
  residual activity: 1.88%
STK39 (human)
  residual activity: 93.6%
PRKCB1 (human)
  residual activity: 99.8%
MAP3K11 (human)
  residual activity: 13.5%
LYN (human)
  residual activity: 2.13% and 6%
JAK2 JH1 JH2 (human)
  residual activity: 97.4%
CDK1 CCNB1 (human)
  residual activity: 95.9%
EPHA4 (human)
  residual activity: 27%
PHKG2 (human)
  residual activity: 103%
LRRK2 (human)
  residual activity: 30.1%
PKN1 (human)
  residual activity: 74.2%
TXK (human)
  residual activity: 27.5%
CDK2 CCNE1 (human)
  residual activity: 98.3%
MAP3K10 (human)
  residual activity: 22.9%
MAP4K5 (human)
  residual activity: 1.72%
TGFBR1 (human)
  residual activity: 99%
DSTYK (human)
  residual activity: 104%
GSG2 (human)
  residual activity: 65.6%
CDK9 CCNT1 (human)
  residual activity: 87%
PAK2 (human)
  residual activity: 69.4%
AKT2 (human)
  residual activity: 104%
RAF1 (human)
  residual activity: 105%
IGF1R (human)
  residual activity: 91.5%
FYN (human)
  residual activity: 29.4%
PDPK1 (human)
  residual activity: 89.8%
TAOK1 (human)
  residual activity: 52.8%
STK3 (human)
  residual activity: 13.9%
ZAP70 (human)
  residual activity: 101%
PBK (human)
  residual activity: 104%
RPS6KA3 KD1 KD2 (human)
  residual activity: 80.1%
LIMK1 (human)
  residual activity: 96.4%
CSK (human)
  residual activity: 12.3%
WNK3 (human)
  residual activity: 91.8%
RPS6KA6 KD1 KD2 (human)
  residual activity: 62%
ROCK2 (human)
  residual activity: 85%
STK11 (human)
  residual activity: 98.1%

## O=C1C(Cl)=C(N2C(=O)CCC2=O)C(=O)c2ccccc21
MAPKAPK2 (human)
  residual activity: 105%
DYRK4 (human)
  residual activity: 94.1%
LCK (human)
  residual activity: 106%
STK39 (human)
  residual activity: 97.3%
PRKCB1 (human)
  residual activity: 92.1%
MAP3K11 (human)
  residual activity: 102%
LYN (human)
  residual activity: 93.5% and 97%
JAK2 JH1 JH2 (human)
  residual activity: 104%
CDK1 CCNB1 (human)
  residual activity: 118%
EPHA4 (human)
  residual activity: 101%
PHKG2 (human)
  residual activity: 100%
LRRK2 (human)
  residual activity: 103%
PKN1 (human)
  residual activity: 108%
TXK (human)
  residual activity: 95.5%
CDK2 CCNE1 (human)
  residual activity: 90.3%
MAP3K10 (human)
  residual activity: 92.8%
MAP4K5 (human)
  residual activity: 90.4%
TGFBR1 (human)
  residual activity: 101%
DSTYK (human)
  residual activity: 95.4%
GSG2 (human)
  residual activity: 101%
EPHA2 (human)
  residual activity: 107%
CDK9 CCNT1 (human)
  residual activity: 101%
PAK2 (human)
  residual activity: 104%
AKT2 (human)
  residual activity: 96.3%
RAF1 (human)
  residual activity: 93%
IGF1R (human)
  residual activity: 107%
FYN (human)
  residual activity: 111%
PDPK1 (human)
  residual activity: 100%
TAOK1 (human)
  residual activity: 83.1%
STK3 (human)
  residual activity: 98.2%
ZAP70 (human)
  residual activity: 93.8%
PBK (human)
  residual activity: 106%
RPS6KA3 KD1 KD2 (human)
  residual activity: 101%
LIMK1 (human)
  residual activity: 92.5%
CSK (human)
  residual activity: 79.5%
ABL1 (human)
  residual activity: 103%
WNK3 (human)
  residual activity: 96.4%
RPS6KA6 KD1 KD2 (human)
  residual activity: 99.9%
ROCK2 (human)
  residual activity: 91.5%
STK11 (human)
  residual activity: 99.8%

## Fc1ccc(-c2nc3n(c2-c2ccncc2)CCS3)cc1
PRKCE (human)
  residual activity: 97.7%
MAPKAPK2 (human)
  residual activity: 101%
DYRK4 (human)
  residual activity: 106%
STK10 (human)
  residual activity: 94.9%
LCK (human)
  residual activity: 96.2%
STK39 (human)
  residual activity: 103%
PRKCB1 (human)
  residual activity: 94.2%
MAP3K11 (human)
  residual activity: 95.7%
LYN (human)
  residual activity: 106% and 97.4%
JAK2 JH1 JH2 (human)
  residual activity: 93.6%
CDK1 CCNB1 (human)
  residual activity: 91.4%
EPHA4 (human)
  residual activity: 106%
PHKG2 (human)
  residual activity: 104%
LRRK2 (human)
  residual activity: 96.7%
PKN1 (human)
  residual activity: 101%
TXK (human)
  residual activity: 98.9%
CDK2 CCNE1 (human)
  residual activity: 87.9%
MAP3K10 (human)
  residual activity: 101%
MAP4K5 (human)
  residual activity: 98.7%
TGFBR1 (human)
  residual activity: 106%
DSTYK (human)
  residual activity: 105%
GSG2 (human)
  residual activity: 104%
EPHA2 (human)
  residual activity: 107%
CDK9 CCNT1 (human)
  residual activity: 94.9%
PAK2 (human)
  residual activity: 84.7%
AKT2 (human)
  residual activity: 95.9%
RAF1 (human)
  residual activity: 91.1%
IGF1R (human)
  residual activity: 106%
FYN (human)
  residual activity: 108%
PDPK1 (human)
  residual activity: 109%
TAOK1 (human)
  residual activity: 97.7%
STK3 (human)
  residual activity: 111%
ZAP70 (human)
  residual activity: 107%
PBK (human)
  residual activity: 100%
RPS6KA3 KD1 KD2 (human)
  residual activity: 107%
LIMK1 (human)
  residual activity: 89.3%
ABL1 (human)
  residual activity: 102%
WNK3 (human)
  residual activity: 105%
RPS6KA6 KD1 KD2 (human)
  residual activity: 115%
ROCK2 (human)
  residual activity: 99.1%
STK11 (human)
  residual activity: 93.8%
